Legend:
[1] = organism: Cavia porcellus; experiment: Selectivity ratio of pKb for Cavia porcellus (guinea pig) ileum M3 receptor to pKb for Cavia porcellus (guinea pig) left atria M2 receptor; format: tissue-based; settings: Atrium/Ileum
[2] = molecular target: Muscarinic acetylcholine receptor M3 (Cavia porcellus) (UniProt Q8VH26); experiment: Binding affinity to Cavia porcellus (guinea pig) ileum M3 receptor after 30 min; format: tissue-based
[3] = Selectivity ratio of pKb for rabbit vas deferens M1 receptor to pKb for guinea pig ileum M3 receptor; format: tissue-based
[4] = Selectivity ratio of pKb for rabbit vas deferens M1 receptor to pKb for guinea pig left atria M2 receptor
[5] = molecular target: T1, Muscarinic receptor 2 (Cavia porcellus) (UniProt Q8VH27); experiment: Binding affinity to Cavia porcellus (guinea pig) left atria M2 receptor after 2 hr
T1 sequence (whole entry): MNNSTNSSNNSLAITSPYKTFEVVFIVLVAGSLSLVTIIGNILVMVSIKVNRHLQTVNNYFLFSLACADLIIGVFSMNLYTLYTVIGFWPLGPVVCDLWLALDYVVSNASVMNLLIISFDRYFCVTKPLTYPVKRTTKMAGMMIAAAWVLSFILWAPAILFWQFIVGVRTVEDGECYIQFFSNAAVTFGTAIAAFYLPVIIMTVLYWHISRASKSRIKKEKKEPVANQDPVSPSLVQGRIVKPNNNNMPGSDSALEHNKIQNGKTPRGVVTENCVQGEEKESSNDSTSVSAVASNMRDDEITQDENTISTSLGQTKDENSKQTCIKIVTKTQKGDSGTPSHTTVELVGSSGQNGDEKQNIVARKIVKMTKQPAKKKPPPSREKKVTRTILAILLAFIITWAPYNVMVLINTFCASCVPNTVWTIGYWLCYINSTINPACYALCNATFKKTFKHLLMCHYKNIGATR

[6] = organism: Oryctolagus cuniculus; experiment: Binding affinity to Oryctolagus cuniculus (rabbit) vas deferens M1 receptor after 1 hr
[7] = molecular target: T2, Muscarinic receptor 2 (Cavia porcellus, UniProt Q8VH27); experiment: Antagonist activity at Cavia porcellus (guinea pig) left atria M2 receptor after 2 hr; settings: read-out: pA2 (converted)
T2 sequence (Q8VH27 whole entry): T1 sequence (whole entry)

[8] = molecular target: Muscarinic acetylcholine receptor M3 (Cavia porcellus, UniProt Q8VH26); experiment: Antagonist activity at Cavia porcellus (guinea pig) ileum M3 receptor after 30 min; format: tissue-based; settings: read-out: pA2 (converted)
Muscarinic acetylcholine receptor M3, sequence (Q8VH26 whole entry): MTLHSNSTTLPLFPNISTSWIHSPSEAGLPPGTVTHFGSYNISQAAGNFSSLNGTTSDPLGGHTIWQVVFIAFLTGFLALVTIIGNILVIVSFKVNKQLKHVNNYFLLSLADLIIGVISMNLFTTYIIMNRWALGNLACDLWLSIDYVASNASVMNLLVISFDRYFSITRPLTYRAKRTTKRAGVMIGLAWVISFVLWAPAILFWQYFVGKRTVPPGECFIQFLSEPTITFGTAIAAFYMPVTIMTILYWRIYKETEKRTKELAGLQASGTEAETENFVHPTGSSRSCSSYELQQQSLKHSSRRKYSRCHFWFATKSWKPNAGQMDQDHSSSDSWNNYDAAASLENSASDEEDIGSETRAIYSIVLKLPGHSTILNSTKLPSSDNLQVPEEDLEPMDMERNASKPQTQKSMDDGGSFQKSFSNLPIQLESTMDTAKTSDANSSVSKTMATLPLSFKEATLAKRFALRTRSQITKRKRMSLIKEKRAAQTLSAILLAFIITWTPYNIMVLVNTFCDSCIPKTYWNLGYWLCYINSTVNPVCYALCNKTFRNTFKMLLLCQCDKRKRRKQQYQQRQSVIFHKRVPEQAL

Muscarinic acetylcholine receptor M3 (Cavia porcellus), sequence (Q8VH26 1-587): as the sequence (Q8VH26 whole entry) above

pKb [2]	Ratio pKb [4]	pKb [5]	pKb [6]	Kb [7] [nM]	Kb [8] [nM]	SMILES	Ratio pKb [1]	Ratio pKb [3]
6.72	1	7.11	7.15	–	–	CN(C)CC1COC(c2ccccc2)(c2ccccc2)O1 (centres undefined)	0.4	3
6.44	0.7	6.48	6.35	–	–	C[C@@H]1OC(c2ccccc2)(c2ccccc2)O[C@@H]1CN(C)C (relative stereo)	0.9	0.8
–	–	–	–	1580	372	CN(C)[C@H]1CO[C@H](C(c2ccccc2)c2ccccc2)OC1	–	–
6.71	1	6.71	6.87	–	–	C[C@H]1OC(c2ccccc2)(c2ccccc2)O[C@@H]1CN(C)C (relative stereo)	1	1
–	–	–	–	28.2	5.37	CN(C)[C@H]1CO[C@@H](C(c2ccccc2)c2ccccc2)OC1	–	–
6.07	5	6.62	7.31	–	–	CN(C)C[C@@H]1CO[C@H](C(c2ccccc2)c2ccccc2)O1	0.3	17
6.67	2	6.56	6.9	–	–	CN(C)C[C@@H]1CO[C@@H](C(c2ccccc2)c2ccccc2)O1	1	2

— ChEMBL document CHEMBL3046433, “Synthesis and Antimuscarinic Activity of Derivatives of 2-Substituted-1,3-Dioxolanes” (Med Chem Res, 2005)
